US20170334899A1, “AMINO-SUBSTITUTED ISOTHIAZOLES” (Bayer Pharma Aktiengesellschaft, priority 2014, published 2017)

Test system: human cervical tumor cell line HeLa (ATCC CCL-2)
Assay: SAC-Formation - Nocodazole-Induced Assay
Type: cell-based
Conditions: 24 h, HeLa cells, nocodazole 0.1 μg/ml together with test compound, decrease of mitotic cells (phospho-histone H3 Ser10)
Summary of the method: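 HeLa cells, plated overnight, were treated 24 h at 37 °C with nocodazole (0.1 μg/ml final) plus test compound (0.005–20 μM, 0.5% DMSO) added at the same time. After fixation, anti-phospho-histone H3 Ser10 and Hoechst staining gave the mitotic cell fraction by imaging. Values came from four-parameter Hill fits.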

| SMILES | IC50 (Homo sapiens, HeLa) | IC50 |
| --- | --- | --- |
| Cc1nsc(Nc2cnc(C(F)(F)F)cn2)c1C(=O)Nc1ccc(OCC2CCN(CCF)C2)nc1 (stereo not shown) [Example 121, N-(6-{[1-(2-fluoroethyl)pyrrolidin-3-yl]methoxy}pyridin-3-yl)-3-methyl-5-{[5-(trifluoromethyl)pyrazin-2-yl]amino}-1,2-thiazole-4-carboxamide] | 0.34 µM | – |
| Cc1nsc(Nc2cnc(C(F)(F)F)cn2)c1C(=O)Nc1ccc(O[C@@H]2CCN(CC(F)(F)F)C2)nc1 [Example 421, 3-Methyl-N-(6-{[(3R)-1-(2,2,2-trifluoroethyl)pyrrolidin-3-yl]oxy}pyridin-3-yl)-5-{[5-(trifluoromethyl)pyrazin-2-yl]amino}-1,2-thiazole-4-carboxamide] | – | 0.34 µM |
| Cc1nsc(Nc2cnc(C(F)(F)F)cn2)c1C(=O)Nc1ccc(OC[C@@H]2CCCN(CCC(F)(F)F)C2)nc1 [Example 422, 3-Methyl-5-{[5-(trifluoromethyl)pyrazin-2-yl]amino}-N-(6-{[(3R)-1-(3,3,3-trifluoropropyl)piperidin-3-yl]methoxy}pyridin-3-yl)-1,2-thiazole-4-carboxamide] | – | 0.04 µM |
| Cc1nsc(Nc2cnc(C(F)(F)F)cn2)c1C(=O)Nc1ccc(O[C@@H]2CCN(CCC(F)(F)F)C2)nc1 [Example 423, 3-Methyl-5-{[5-(trifluoromethyl)pyrazin-2-yl]amino}-N-(6-{[(3R)-1-(3,3,3-trifluoropropyl)pyrrolidin-3-yl]oxy}pyridin-3-yl)-1,2-thiazole-4-carboxamide] | – | 0.047 µM |
